Test results from patent publication US4513008A, “Virucidal compositions and therapy” (The Vinoxen Company, Inc., priority 1982, dated 1985).

Legend:
[1] = test system: HSV-2; test: In vivo mouse bioassay: intravaginal HSV-2 infection, topical treatment; set-up: species or system HSV-2 strain 333 in female Swiss Webster mice; key to Max. Lesion Score: 0: no clinical signs of vaginal infection; ±: slight perivaginal redness; perivaginal redness and swelling of 1-2 mm; perivaginal redness and swelling of 2-3 mm; perivaginal and perianal redness and swelling of 3-4 mm; perivaginal and perianal redness and swelling of 4 mm or more, with exudate; settings: for # Infected, Day 14 / # of Deaths, Day 14: 10 animals/group
[2] = test system: herpes virus type 2; test: Guinea pig bioassay: intravaginal HSV-2 infection, topical treatment; format: in vivo; set-up: key to MVL Score Day 5 / MVL Score Day 6 / MVL Score Day 7 / MVL Score Day: lesion severity scored on 0 to 4 scale
Description: In both studies, DHA was compared with ACV in a controlled study for effectiveness in reducing the occurrence and the severity of lesions resulting from infection by HSV-2 and in reducing mortality resulting from the virus infection.
Using substantially the procedures of Pancic et al., loc. cit., the topical activity of DHA, a representative and preferred virucide for use in the present method, was evaluated in mice and in guinea pigs. Both evaluations included comparative testing against ACV and the mouse tests included a comparison of two different vehicles.
A blind comparative test was carried out on guinea pigs using coded substances labeled A through D. The testers were told only that one of the four substances was ACV, that the other three coded samples were the same material, in concentrations of 0.1, 1.0 and 10 mg/ml, and that all four samples were formulated in a polyethylene glycol 1000 (PEG-1000) vehicle. A separate sample of the PEG-1000 was also submitted to serve as a placebo for treating virus control animals. The materials and experimental protocol is shown below.
Animals. Female Hartley strain albino guinea pigs weighing about 450-500 g were used. The animals were quarantined 24 hr prior to use in this study, and maintained 5 to a 32"×32"×9" stainless steel cage on Wayne guinea pig diet and water ad libitum.
Virus. Strain E194 of herpes virus type 2 was used. […] The virus was held at -90° C. until used.
(§1) Drugs. The substances tested consisted of four bottles labelled "A", "B", "C", and "D" with no identifying key. The samples were: A, 0.1 mg/ml DHA (0.003 mmol/ml); B, 5% w/w ACV (0.22 mmol/ml); C, 1 mg/ml DHA (0.03 mmol/ml); and D, 10 mg/ml DHA ([…]). […] All were treated as light-sensitive compounds.
Experimental Protocol. The guinea pigs were infected by applying a virus-soaked swab intravaginally, with agitation, for 20 seconds. […] Treatment began 20 hr later, with the compound or placebo applied topically intravaginally, perivaginally, and perianally using cotton swabs soaked in the respective substance. Treatment continued three times daily (8 a.m., noon, 4 p.m.) for 7 days. Ten infected animals were used for each coded substance, with twenty used for virus controls. Five sham-infected animals were concomitantly treated with each coded substance to serve as toxicity controls. Two guinea pigs were held separately to serve as normal untreated controls.
(§2) On days 5 through 8 post-virus inoculation, the genital area was carefully examined and signs of irritation in the toxicity controls and lesion severity in injected animals was scored on a 0 to 4 scale using the same scale as in the mouse bioassay. The results were scored as average daily lesion (ADL) scores for each group, and as mean vaginal lesion (MVL) scores, calculated as the mean of the ADL scores for days 5-8. The maximum mean score for the toxicity control animals was also determined.
On day 6 prior to the 8 a.m. treatment, intravaginal and perivaginal areas of each infected guinea pig were uniformly swabbed with sterile cotton swabs. The swab for each animal was placed in 1.0 ml of sterile Eagles minimum essential medium and immediately frozen at -90° C.; several days later all were thawed and each swab-containing sample vortexed for 15 seconds and then the sample was diluted through a series of 10-fold dilutions in sterile medium. Each dilution was assayed for virus in triplicate by adding 0.1 ml to an established monolayer of MA-104 cells in 96-well disposable plastic microplates. The plates were sealed, incubated at 72 hr at 37° C., and virus-induced cytopathic effect noted microscopically.
Data Analysis. Increases in survivors were analyzed using chi square analysis with Yate's correction. Mean survival times (MST) of animals dying on or before […] were determined for each group, and evaluated using the t test.

[3] = Guinea pig toxicity controls (sham-infected, topical treatment); format: in vivo, guinea pigs; settings: B: 5% w/w ACV in PEG-1000
Description: as §1
Experimental Protocol. The guinea pigs were infected by applying a virus-soaked swab intravaginally, with agitation, for 20 seconds. Toxicity control animals were similar pretreated using swabs soaked in sterile Puck's balanced salt solution. Treatment began 20 hr later, with the compound or placebo applied topically intravaginally, perivaginally, and perianally using cotton swabs soaked in the respective substance. Treatment continued three times daily (8 a.m., noon, 4 p.m.) for 7 days. Ten infected animals were used for each coded substance, with twenty used for virus controls. Five sham-infected animals were concomitantly treated with each coded substance to serve as toxicity controls. Two guinea pigs were held separately to serve as normal untreated controls.
as §2, with “Each animal was observed daily for survival for a total of 28 days. On” for “On”

[4] = test system: herpes simplex virus type 2 (HSV-2); test: In vitro HSV-2 bioassay: virucidal plaque assay (HEP-2 cells); format: cell-based, HSV-2 strain 333; settings: for plaque count: TNTC = too numerous to count
Description: Evidence of the efficacy of the virucides of the invention in vitro has been obtained from bioassay using HSV-2, using a standard assay procedure. Serial dilutions of the compounds were tested for their ability to prevent plaque formation by a stock virus suspension. Reduction of plaque titer by test compounds as compared to mock treated controls was indicative of virucidal activity. […] These represent the upper limit for the drug concentration, since dilutions were not carried beyond 1:6400 and in some cases 1:12800.
Cell Culture. Cell cultures used for the propagation and titration of HSV-2 were the human diploid lung embryonic line MRC-5 and the human malignant epitheloid cell line HEP-2 respectively. Stock monolayer cultures of both cell lines were propagated in Dulbecco's Modified Eagle's medium (DME) supplemented with 10% (V/V) calf serum. Spinner cultures for mass production of HEP-2 cells were grown in Joklik's medium supplemented with 10% (V/V) calf serum and 1% (W/V) pluronic acid. Monolayer cultures of HEP-2 cells for plaque or virucidal assay were seeded into 60 mm dishes in DME supplemented with 10% calf serum and antibiotics. Stock cultures were maintained in antibiotic free medium.
Herpes simplex virus, type 2 (HSV-2) strain 333 was obtained from Dr. John Hughes of the Dept. of Medical Microbiology, College of Medicine, The Ohio State University. Stocks of HSV-2 were prepared in the human diploid embryonic lung cell line, MRC-5. Confluent MRC-5 monolayer cultures in T-75 plastic flasks were washed one time with Hank's and Balanced Salt solution (HBSS) and infected with 0.5 ml of HSV-2, strain 333 stock. Virus was adsorbed for 1 hour at 37° C. Then the culture was refed with 15 ml of DME supplemented with 1% (V/V) calf serum. Virus was harvested 48 hours later when cytopathology was complete. Cultures were frozen and thawed rapidly three times to release cell associated virus, clarified by centrifugation at 10,000×g for 15 minutes at 4° C., aliquoted into 5 ml lots and frozen at -70° C. One lot was taken for virus titration.
HSV-2 was titrated by plaque assay in HEP-2 cells under a semi-solid methyl cellulose overlay. Tenfold serial dilutions of virus were prepared in HBSS and 0.3 ml aliquots of each dilution inoculated onto triplicate HEP-2 cell monolayers in 60 mm plastic petri dishes. Adsorption of virus was for 1 hour at 37° C. Plates were then overlayed with 5 ml of a 1:1 mixture of 2×DME supplemented with 2% (V/V) calf serum and 3% (W/V) methyl cellulose to give a final 1×DME supplemented with 1% calf serum and 1.5% methylcellulose. Infected plates were incubated at 37° C. in a humidified 10% CO2 atmosphere for 48 hours. Virus plaques were visualized by staining with crystal violet and counted under a dissecting microscope. Virus titers were calculated from the plaque numbers by averaging the plaque count and multiplying by 3.3 (0.3 ml plates).
The following procedure was employed to assay virucidal activity in various test samples. Compounds were received as a solution in DMSO and were serially diluted in HBSS as described for each experiment. For the test, 1 ml of each dilution was mixed with 1 ml of a stock virus suspension diluted to approximately 9×10^3 plaque forming units (P.F.U.)/ml. This test mixture was incubated at 25° C. for 30 minutes, then inoculated onto a cell culture (HEP-2) for plaque assay as described previously. Mock treated (virus plus HBSS) controls were included with each test. Any reduction of plaque titer by test compounds as compared to the mock treated control was indicative of virucidal activity.
Samples from RP-HPLC fractionation of the CLOH, produced according to Example 2, as well as purified samples of palmitic, myristic and oleic acids and Vitamin D2, were tested for HSV-2 bioactivity. […] Pure oleic acid was not active in this assay, nor were palmitic and myristic acids and Vitamin D2. […]

[5] = test system: PR4 bacteriophage; settings: PR4 bacteriophage in vitro; cited from earlier work
[6] = test system: bacteriophage; settings: cited from earlier work
[7] = test system: virus; settings: cited from earlier work
[8] = test system: gram-positive and gram-negative microorganisms; settings: cited from earlier work

Compound: Nc1nc2c(ncn2COCCO)c(=O)[nH]1 [Acyclovir, 9-(2-hydroxyethoxymethyl)guanine, reference compound]
- Max. Lesion Score ([1]; ACV 5% wt/vol in DMSO): ±
- # Infected, Day 14 ([1]; ACV 5% wt/vol in DMSO): 3
- # of Deaths, Day 14 ([1]; ACV 5% wt/vol in DMSO): 0
- Max. Lesion Score ([1]; ACV 5% wt/vol in PEG): ±
- # Infected, Day 14 ([1]; ACV 5% wt/vol in PEG): 4
- # of Deaths, Day 14 ([1]; ACV 5% wt/vol in PEG): 0
- % Mortality ([1]; DMSO & Acyclovir (5%)): 0%
- Day of Maximum % Morbidity ([1]; DMSO & Acyclovir (5%)): 7 days
- Maximum % Morbidity ([1]; DMSO & Acyclovir (5%)): 30%
- Mean Day of Death ([1]; DMSO & Acyclovir (5%)): > 14 days
- % Mortality ([1]; Ointment & Acyclovir (5%)): 0%
- Day of Maximum % Morbidity ([1]; Ointment & Acyclovir (5%)): 7 days
- Maximum % Morbidity ([1]; Ointment & Acyclovir (5%)): 40%
- Mean Day of Death ([1]; Ointment & Acyclovir (5%)): > 14 days
- survival rate ([1]; both carrier vehicles, observed 14 day period): 100%
- efficacy in mice in words ([1]; topical, HSV-2 infected mice): effective in minimizing the clinical signs of infection in either carrier vehicle
- MVL Score Day 5 ([2]; B: 5% w/w ACV in PEG-1000): 1.8
- MVL Score Day 7 ([2]; B: 5% w/w ACV in PEG-1000): 3.4
- MVL Scores Days 5-8 ([2]; B: 5% w/w ACV in PEG-1000, 0 to 4 scale): 2.8
- Infected, Treated Surv/Total ([2]; B: 5% w/w ACV in PEG-1000, 28 days): 5/10
- MVL Score Day 6 ([2]; B: 5% w/w ACV in PEG-1000, P < 0.05): 2.3
- MVL Score Day ([2]; B: 5% w/w ACV in PEG-1000, last day): 3.3
- reduction in lesion scores, in words ([2]; guinea pigs, topical): neither ACV nor the lowest dosage of DHA were able to achieve a statistically significant reduction in lesion scores
- Toxicity Controls Surv/Total [3]: 5/5
- Toxicity Controls Max. Irrit. Score ([3]; 0 to 4 scale): 0.0

Compound: CCCCCCCC/C=C\CCCCCCCC(=O)O [Oleic acid, reference compound]
- plaque count ([4]; Table 1, dilution 1:10): 36
- titer ([4]; Table 1, dilution 1:10, controls 2.6 × 10^4 (a), 1.3 × 10^4 (b)): 1.2 × 10^2
- plaque count ([4]; Table 1, dilution 1:100): TNTC
- plaque count ([4]; Table 1, dilution 1:200): TNTC
- plaque count ([4]; Table 1, dilution 1:400): TNTC
- plaque count ([4]; Table 1, dilution 1:800): TNTC
- plaque count ([4]; Table 1, dilution 1:1600): TNTC
- plaque count ([4]; Table 1, dilution 1:3200): TNTC
- plaque count ([4]; Table 1, dilution 1:6400): TNTC
- virucidal activity against HSV-2 in words ([4]; in vitro bioassay): not active
- inhibition of viral replication, in words [5]: most effective
- inactivation of virus (virucidal activity), in words [6]: most effective fatty acid tested

Compound: CCCCCC=CCC=CCC=CCCCCCO [gamma-linolenyl alcohol, 6,9,12-octadecatrien-1-ol]
- antiviral activity in vitro, in words [7]: most active

Compound: CCCCC/C=C\C/C=C\C/C=C\C/C=C\CCCC(=O)O [Arachidonic acid]
- inhibition of viral replication, in words [5]: moderately effective, but less effective than linolenic acid
- inhibition of growth of microorganisms, in words [8]: not inhibitory at the concentrations tested

Compound: CCCCCC/C=C\CCCCCCCC(=O)O [palmitoleic acid]
- inhibition of viral replication, in words [5]: most effective
